What was measured:
[1] = tested on: 17p in gastric cancer cells; assay: Effect of RES on 17p allelic loss (PCR-SSCP); type: cell-based
Procedure: (§1) The gastric cancer cells and normal cells were cultured in RPMI 1640 medium supplement with 10% fetal bovine serum. All the exons of the p^53 gene were amplified by the polymease chain reaction (PCR) using specific oligonucleotide primers. The PCR products were subjected to single-strand conformation polymorphism (SSCP) analysis.

[2] = tested on: NNK-induced lung tumorigenesis; assay: NNK-induced lung tumorigenesis; type: in vivo, mice; conditions: RES by injection 20 mg/kg daily; 10 μmol NNK i.p.; pulmonary adenomas counted after sixteen weeks
Procedure: The capacity of tobacco-specific nitrosamine 4-(methylnitrosamino)-1-(3-pyridyl)-1-butanone (NNK) to induce tumor incidence was recognized several years ago. Every group had 20 mice. For treatment group, each mouse was gave RES by injection at dose of 20 mg/kg daily. For control group, each mouse was gave same volume of physiological saline. Three days later, mice were gave 10 μmol NNK (in 0.1 ml saline) by i.p. injection. Sixteen weeks after these treatments the mice were killed and pulmonary adenomas were counted. The statistical significance of bioassay data was determined by student's test.

Cytochrome P-450 = assay: Effect of RES on hepatic microsomal monooxygenases: cytochrome P-450; type: in vivo; conditions: rat liver microsomes
Procedure: (§2) In the present study, the effect of RES on the activities of hepatic microsomal monooxygenases was examined.
(§3) Microsomal preparations—the microsomes used were prepared from rat's liver. The liver was thoroughly perfused in situ with more than 200 ml of 0.9% NaCl solution. The liver was excised, and homogenized with 4 volumes of isotonic (1.15%) KCl solution in a Potter glass homogenizer. The homogenate was centrifuged at 12,000×g for 25 minutes in a refrigerated centrifuge, and the precipitate was discarded. The microsomes were sedimented by centrifugation at 78,000×g for 90 minutes in a Hitachi model 40P preparative ultracentrifuge. The firmly packed pellet of microsomes was resuspended in isotonic KCl solution with the Potter homogenizer and again centrifuged as above. The washed microsomes were finally suspended in isotonic KCl, usually at a concentration of 10 mg of protein per ml. The resultant microsomal suspensions were stored at 4° C. and used within 2 to 3 days. In these preparations isotonic KCl was employed, instead of the more usual 0.25 M sucrose, so as to minimize the adsorption of hemoglobin on microsomes.
(§4) Cytochrome P-450, NADPH-cytochrome creductase, aminoyrine demethylase and benzpyrene hydroxylase determined as previously described. Other methods are as same as above section.

mouse epidermis = assay: Rate of [3H] thymidine incorporation in normal and TPA-stimulated mouse epidermis; type: in vivo
Procedure: It is known that tetradecanoyphorbol-13-acetate (TPA) is strong tumor promoter and TPA can remarkable increase [^3H] thymidine incorporation in mouse epidermis and then to induce Epidermis cancer.
Mice were treated with TPA and the rate of [^3H] thymidine incorporation was determined 20 hours later. Male mice (7-9 weeks old) used for experiments. Only mice showing no hair regrowth following shaving were used. Animals were injected intraperitoneally (i.p.) with TPA or […]. After 20 hours, mice were injected i.p. with 60 μCi of [^3H] thymidine (2 Ci/mmol) 20 minutes before sacrifice. Epidermal scrapings were prepared. Homogenized in distilled water at 4° C., and the macromolecules precipitated with 0.4 N trichloracetic acid (TCA). Following 6 washes with 0.2 N TCA at 4° C. and 2 washes with absolute ethanol at room temperature, the nucleic acids were hydrolyzed with 0.5 N TCA at 90° C. for 5 minutes. The hydrolysates (0.2 ml aliquots) were counted in a scintillation counter and assayed for DNA. Each value is the mean±range for three separately treated mice. Each counted aliquot (0.2 ml) contained approximately 10 μg of DNA.

GSH-Px [3] = assay: Effect of RES on super-oxidation during reperfusion of ischemia heart: GSH-Px; design: species or system rats
Procedure: (§5) H2O2 in the body is cleared by catalase and glutathione peroxidase (GSH-Px) catalysis. In myocardium, catalase activity of GSH-Px was lower.
(§6) In the present study we examined the effect of RES on super-oxidation during reperfusion of ischemia heart.
(§7) Male rats (280 to 320 g body weight) of Spague-Dawley strain maintained on a standard diet were used in these experiments. The rats were lightly anesthetized with diethyl ether, the left femoral vein was exposed and heparin (200 IU) was administered intravenously. 1 minute after administration of heparin the heart was excised and placed in ice cool perfusion medium until contraction had ceased. The heart was then mounted on the perfusion apparatus.
(§8) Langendorff perfusion for an initial 10 min. period, the perfusion was continued as a working preparation for an additional 30 min. The hearts were all electrically paced at between 265 and 275 beats/min during working perfusion.
(§9) The perfusate was Krebs-Henseleit bicarbonate buffer gassed with 95% oxygen and 5% carbon dioxide. This perfusate contained 11 mM D-glucose during the Langendorff perfusion.
(§10) Aortic pressure, heart rates, coronary flows and aortic outputs were monitored during perfusion. […] The perfusate of control group contained buffer only. At the end the frozen hears were store in liquid nitrogen until assayed for metabolic intermediates. […]

n-ras RNA = assay: Inhibition of oncogene expression in ML-1 cells (northern blot): n-ras; type: cell-based, Human
Procedure: (§11) Human myeloblastic leukemic cell (ML-1) had been described previously. Cells were maintained in suspension culture in RPMI 1640 medium supplemented with 7.5% heat-inactivated FBS. Cells growth and viability were assayed by hemocytometer using trypan blue dye exclusion.
(§12) RNA was isolated by the CsCl gradient modification. RNA pellets were washed twice by reprecipitation in ethanol and quantitated by absorbency at […]. RNA analyzed by electrophoresis of 15 μg of RNA through 1.2% agarose formaldehyde gels followed by northern blot transfer to nitrocellulose.
(§13) Single-standard uniformly labeled DNA probes were prepared. Probe of c-myc was a 1.7 Kb cla-Eco RI restriction fragment containing the 3′exon region of human c-myc and probe of c-myb was 1.0 Kb myb-specific Bam HI fragment. Probes for n-ras contained DNA fragments using a modification of the PCR technique. Probes for myb, myc and n-ras were isolated by electrolution. The isolated fragments were labeled to high specific activity with [α^32P]-dCTP (3000 ci/mmol). Prehybridization of the filter was performed. The hybridization mixer contained 50,000 cpm of probe. The probes were hybridized at 58° C. in 15 mM NaCl, […] sodium citrate for 3 hours. After hybridization, they were exposed to XAR-5 film. Oncogene expression was quantitated by densitometer scanning of the autoradiography.

[4] = tested on: NADPH-cytochrome Creductase; assay: Effect of RES on hepatic microsomal monooxygenases: NADPH-cytochrome c reductase; type: in vivo; conditions: rat liver microsomes
Procedure: as §2, §3, §4

Aminopyrine demethylase = assay: Effect of RES on hepatic microsomal monooxygenases: aminopyrine demethylase; type: in vivo; conditions: rat liver microsomes
Procedure: as §2, §3, §4

c-myc RNA = assay: Inhibition of oncogene expression in ML-1 cells (northern blot): c-myc; type: cell-based, Human
Procedure: as §11, §12, §13

c-myb RNA = assay: Inhibition of oncogene expression in ML-1 cells (northern blot): c-myb; type: cell-based, Human
Procedure: as §11, §12, §13

Lipoperoxides = assay: Effect of RES on peroxidation (hepatic lipoperoxide content, CCl4-induced hepatic damage); type: in vivo
Procedure: The experiments were performed as previously described. Hepatic lipoperoxide content was determined as described by Uchiyama.
In the present study, the effect of RES on lipoperoxides was examined.
It is known that the pathogenesis of CCl4—induced hepatic damage involved reactive oxidant species increasing from the metabolism. The liver injure caused by CCl4 is due to the formation of a reactive toxic metabolite by the hepatic cytochrome P-450 system.

SOD = assay: Effect of RES on super-oxidation during reperfusion of ischemia heart: SOD; design: species or system rats
Procedure: as §5, §6, §7, §8, §9, §10

Benzpyrene hydroxylase = assay: Effect of RES on hepatic microsomal monooxygenases: benzpyrene hydroxylase; type: in vivo; conditions: rat liver microsomes
Procedure: as §2, §3, §4

[5] = tested on: p53 gene in gastric cancer cells; assay: Effect of RES on p53 allelic loss (PCR-SSCP); type: cell-based
Procedure: as §1

[6] = tested on: bovine aortic smooth muscle cell modified LDL; assay: Effect of RES on lower density lipoprotein oxidation (MDA); type: cell-based; conditions: LDL + 100 μg RES/ml, 37° C., 24 h; x ± s
GSH-Px [7] = assay: Effect of RES on GSH-Px activity in tissues after 30 days feeding; type: in vivo; conditions: 0.2% RES solution as drinking water up to 30 days
Text: Glutathion peroxidase (GSH-Px) is an important enzyme, which has a high activity in cancer tissues.
Twenty animals were divided into two groups of ten each and fed with either normal drinking water (control group) or 0.2% of RES solution (experimental group); this defined feeding regimen was continued up to 30 days. At the end of the feeding regimen, the animals were sacrificed, and whole skin, small bowel, liver, and lung were removed and immediately placed in ice-cold 0.1 M phosphate buffer, pH 7.4. Tissues were cleaned properly, minced and homogenized in the same buffer, and a 100,000×g supernatant fraction was prepared as described earlier. GSH-Px and GSH-r activities were measured.

[8] = gastric cancer cells treated by RES
[9] = gastric cancer cells treated by RES vs no drug
[10] = ischemia heart, perfusate with 0.05 mg of RES/ml
[11] = pre-perfusion with 4×10^−6 g of RES/ml

Structure (SMILES): Oc1ccc(/C=C/c2cc(O)cc(O)c2)cc1 [RES, resveratol]
- Frequency of 17p allelic loss [1, 8]: 18.8%
- Inhibition T/C (17p allelic loss) [1, 9]: 49%
- Tumor incidence [2]: 28.5 ± 3.0%
- Cytochrome P-450 (Cytochrome P-450): 2.65 ± 0.35 nmol/mg protein
- Specific activity, [3H] thymidine incorporation, TPA (mouse epidermis; TPA-stimulated mouse epidermis, 20 hours after TPA): 33.0 ± 4.5 cpm/μg DNA
- Specific activity, [3H] thymidine incorporation, Normal (mouse epidermis; normal mouse epidermis): 32.2 ± 4.0 cpm/μg DNA
- GSH-Px (GSH-Px [3]; [10]): 18.9 ± 2.0 μ/g.w
- GSH-Px activity versus control group (GSH-Px [3]; [11]): significantly higher
- Inhibition (%) n-ras RNA (n-ras RNA): 35.7 ± 3.8%
- NADPH-cytochrome Creductase [4]: 198.5 ± 20 nmol/mg protein
- Aminopyrine demethylase (Aminopyrine demethylase): 170.0 ± 18 nmol HCHO/mg protein
- Inhibition (%) c-myc RNA (c-myc RNA): 30.1 ± 4.2%
- Inhibition (%) c-myb RNA (c-myb RNA): 25.6 ± 3.5%
- Lipoperoxides T/C, 1h (Lipoperoxides; 1h): 87%
- Lipoperoxides, 1 h (Lipoperoxides; 1 h, CCl4-induced hepatic damage): 0.65 ± 0.07 mmol MDA/g liver protein
- Lipoperoxides T/C, 3h (Lipoperoxides; 3h): 72%
- Lipoperoxides, 3 h (Lipoperoxides; 3 h, CCl4-induced hepatic damage): 0.62 ± 0.069 mmol MDA/g liver protein
- Lipoperoxides T/C, 6h (Lipoperoxides; 6h): 55%
- Lipoperoxides, 6 h (Lipoperoxides; 6 h, CCl4-induced hepatic damage): 0.60 ± 0.70 mmol MDA/g liver protein
- Lipoperoxides T/C, 12h (Lipoperoxides; 12h): 40%
- Lipoperoxides, 12 h (Lipoperoxides; 12 h, CCl4-induced hepatic damage): 0.59 ± 0.60 mmol MDA/g liver protein
- Lipoperoxides T/C, 24h (Lipoperoxides; 24h): 22%
- Lipoperoxides, 24 h (Lipoperoxides; 24 h, CCl4-induced hepatic damage): 0.58 ± 0.58 mmol MDA/g liver protein
- SOD activity (SOD; [10]): 10.5 ± 1.2 μg/protein
- SOD activity versus control group (SOD; [11]): significantly higher
- Benzpyrene hydroxylase (Benzpyrene hydroxylase): 48.9 ± 5.8 nmol/mg protein
- Frequency of p53 allelic loss [5, 8]: 12%
- Inhibition T/C (p53 allelic loss) [5, 9]: 36%
- MDA [6]: 2.75 ± 0.29 nmol/mg protein
- GSH-Px activity, Liver (GSH-Px [7]; liver): 34 ± 50 n mol NADPH oxidized/mg protein/min
- GSH-Px activity, Lung (GSH-Px [7]; lung): 22 ± 3.5 n mol NADPH oxidized/mg protein/min
- GSH-Px activity, Skin (GSH-Px [7]; skin): 260 ± 30 n mol NADPH oxidized/mg protein/min

— US6855353B2, “Method for producing antioxidant and prevention of cancer” (priority 2002, dated 2005)
